Where a name gives a salt, the structure may show the parent alone.
Columns and labels:
[1] = target: T1, ERAlpha receptor (PanVera) (Homo sapiens, UniProt P03372); assay: Competition binding assay, 3H-Estradiol, ERAlpha receptor; details: 3H-Estradiol competition; IC50 converted to Ki using Cheng-Prusoff equation; read-out: ER binding Ki (ERα)
T1 construct: purchased PanVera
T1 sequence (P03372 1-595): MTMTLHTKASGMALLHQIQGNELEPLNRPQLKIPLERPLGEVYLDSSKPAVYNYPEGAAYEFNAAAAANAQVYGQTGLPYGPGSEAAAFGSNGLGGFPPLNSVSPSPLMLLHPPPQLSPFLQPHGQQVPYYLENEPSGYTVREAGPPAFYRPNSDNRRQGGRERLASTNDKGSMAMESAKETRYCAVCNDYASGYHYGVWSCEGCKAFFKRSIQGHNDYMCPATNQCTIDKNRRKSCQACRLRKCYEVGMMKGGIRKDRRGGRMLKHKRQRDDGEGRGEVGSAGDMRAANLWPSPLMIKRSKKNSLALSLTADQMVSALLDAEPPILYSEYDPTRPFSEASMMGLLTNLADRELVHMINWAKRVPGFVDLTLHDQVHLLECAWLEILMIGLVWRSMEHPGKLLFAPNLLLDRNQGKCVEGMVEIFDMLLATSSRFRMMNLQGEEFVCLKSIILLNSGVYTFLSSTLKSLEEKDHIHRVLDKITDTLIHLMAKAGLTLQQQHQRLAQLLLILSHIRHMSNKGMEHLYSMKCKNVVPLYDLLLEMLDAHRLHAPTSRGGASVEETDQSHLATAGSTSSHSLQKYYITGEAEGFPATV
Experimental: (§1) Competition binding assay is run in a buffer containing 50 mM Hepes, pH 7.5, 1.5 mM EDTA, 150 mM NaCl, 10% glycerol, 1 mg/ml ovalbumin and 5 mM DTT, using 0.025 μCi per well ^3H-Estradiol(NEN #NET517 at 118 Ci/mmol, 1 mCi/ml), 10 ng/well ERAlpha or ERbeta receptor (PanVera). Competing compounds are added at 10 different concentrations. Non-specific binding is determined in the presence of 1 μM of 17-B Estradiol. The binding reaction (140 μl) is incubated for 4 hours at room temperature, then 70 μl of cold DCC buffer is added to each reaction (DCC buffer contains per 50 ml of assay buffer, 0.75 g of charcoal (Sigma) and 0.25 g of dextran (Pharmacia)). Plates are mixed 8 minutes on an orbital shaker at 4° C. Plates are then centrifuged at 3,000 rpm at 4° C. for 10 minutes. An aliquot of 120 μl of the mix is transferred to another 96-well, white flat bottom plate (Costar) and 175 μl of Wallac Optiphase “Hisafe 3” scintillation fluid is added to each well. Plates are sealed and shaken vigorously on an orbital shaker. After an incubation of 2.5 hrs, read plates in a Wallac Microbeta counter. The data is used to calculate an IC50 and % Inhibition at 10 μM. The Kd for ^3H-Estradiol is determined by saturation binding to ER alpha and ER beta receptors. The IC50 values for compounds are converted to Ki using Cheng-Prusoff equation and the Kd determined by saturation binding assay.

[2] = target: T2, ERbeta receptor (PanVera) (Homo sapiens, UniProt Q92731); assay: Competition binding assay, 3H-Estradiol, ERbeta receptor; details: 3H-Estradiol competition; IC50 converted to Ki using Cheng-Prusoff equation; read-out: ER binding Ki (ERβ)
T2 construct: purchased PanVera
T2 sequence (Q92731 whole entry): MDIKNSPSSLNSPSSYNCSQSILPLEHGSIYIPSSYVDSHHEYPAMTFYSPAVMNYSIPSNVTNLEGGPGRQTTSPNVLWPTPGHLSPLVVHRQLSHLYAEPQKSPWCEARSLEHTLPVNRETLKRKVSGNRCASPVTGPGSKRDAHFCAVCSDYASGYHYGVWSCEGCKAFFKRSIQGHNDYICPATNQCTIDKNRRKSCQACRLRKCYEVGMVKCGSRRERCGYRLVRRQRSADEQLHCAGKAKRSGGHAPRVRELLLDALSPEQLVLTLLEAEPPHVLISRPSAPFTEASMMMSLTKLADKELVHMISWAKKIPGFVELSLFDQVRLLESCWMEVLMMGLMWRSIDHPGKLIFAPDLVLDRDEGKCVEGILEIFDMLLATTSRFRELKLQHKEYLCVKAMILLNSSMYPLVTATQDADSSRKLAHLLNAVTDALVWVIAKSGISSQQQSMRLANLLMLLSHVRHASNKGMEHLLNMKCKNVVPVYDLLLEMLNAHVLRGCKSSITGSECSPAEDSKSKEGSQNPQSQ
Experimental: as §1

[3] = test system: MCF-7 breast adenocarcinoma cells; assay: MCF-7 proliferation assay (14C-thymidine), antagonist mode; type: cell-based; details: E2 10 pM
Experimental: MCF-7 breast adenocarcinoma cells (ATCC HTB 22) are maintained in MEM (minimal essential medium, phenol red-free, Gibco BRL) supplemented with 10% fetal bovine serum (FBS) (VV), L-glutamine (2 mM), sodium pyruvate (1 mM), HEPES ((N-[2-hydroxyethyl]piperazine-N′-[2-ethanesulfonic acid]10 mM}, non-essential amino acids (0.1 mM) and Penicillin Streptomycin (1×). Seven days prior to assay, MCF-7 cells are switched to assay media which is the same as maintenance medium except supplemented with 10% dextran-coated charcoal-stripped fetal bovine serum (DCC-FBS) assay medium in place of 10% FBS. MCF-7 cells are removed from flasks using 10× Trypsin EDTA (phenol red free, Gibco BRL) and diluted to IX in (Ca++/Mg++ free HBSS (phenol red-free). Cells are adjusted to 80,000 cells/ml in assay medium. Approximately 8,000 cells (100 μl) are added to each well in 96 well Cytostar T scintillation plates (Amersham) and incubated at 37° C. in a 5% CO2 humidified incubator for 24 hours to allow cell adherence and equilibration after transfer. Serial dilutions of drugs are prepared in assay medium at 4× the final desired concentration). A 50 μl aliquot of drug dilutions (at 4× the final assay concentration) is transferred to duplicate wells followed by 50 μl assay medium for the agonist mode or 50 μl of 40 pM of E2 for the antagonist mode to a final volume of 200 μl. For each of the agonist plates, a basal level (media) and a maximum stimulated level (with 1 μM E2) is determined. For each of the antagonist plates, a basal level (media) and a E2 (10 pM) alone control is determined. After an additional 48 hours at 37° C. in a 5% CO2 humidified incubator, 20 μl of assay medium containing 0.01 μCi of ^14C-thymidine (52 mCi/mmol, 50 μCi/ul, Amersham) is added to each well. The plates are incubated overnight in the same incubator and then counted on the Wallac Microbeta counter. The data is averaged to calculate an IC50 and % inhibition @ 1 μM for the antagonist mode. For the agonist mode, an EC50 and percent of maximum E2 stimulation and concentration of maximum stimulation is calculated.

[4] = test system: Ishikawa human endometrial tumor cells; assay: Ishikawa alkaline phosphatase (PNPP) assay, agonist mode; type: cell-based; details: for Ishikawa Agonist % Eff: % efficacy versus the response to tamoxifen; for EC50: Homo sapiens, Ishikawa
Text: (§2) Ishikawa human endometrial tumor cells are maintained in MEM (minimum essential medium, with Earle's salts and L-Glutamine, Gibco BRL, Gaithersburg, Md.), supplemented with 10% fetal bovine serum (FBS) (V/V), (Gibco BRL). One day prior to assay, growth media is changed to assay medium, DMEM/F-12 (3:1) (Dulbecco's Modified Eagle Medium: Nutrient Mixture F-12,3:1 Mixture, phenol red-free, Gibco BRL) supplemented with 5% dextran coated charcoal stripped fetal bovine serum (DCC-FBS) (Hyclone, Logen, Utah), L-Glutamine (2 mM), MEM sodium pyruvate (1 mM), HEPES (N-[2-hydroxyethyl]piperazine-N′-[2-ethanesulfonic acid] 2 mM) all from Gibco BRL). After an overnight incubation, ishikawa cells are rinsed with Dulbecco's Phosphate Buffered Saline (1×) (D-PBS) without Ca^+2 and Mg^+2 (Gibco BRL), and trypsinized by a 3 minute incubation with 0.25% Trypsin/EDTA, phenol red-free (Gibco BRL). Cells are resuspended in assay medium and adjusted to 250,000 cells/ml. Approximately 25,000 cells in a 100 ul media are added to flat-bottom 96 wells microculture plates (Costar 3596) and incubated at 37° C. in a 5% CO2 humidified incubator for 24 hours. The next day, serial dilutions of compounds are prepared in assay medium (at 6 times the final concentration in the assay). The assay is run in dual mode, agonist and antagonist modes. For the agonist mode, plates receive 25 μl/well of assay medium followed by 25 μl/well of diluted compounds (at 6× the final concentrations). For the antagonist mode, plates receive 25 μl/well of 6 nM E2 (β-Estradiol, Sigma, St. Louis, Mo.) followed by 25 μl/well of diluted compounds (at 6× the final concentrations). After an additional 48-hour incubation at 37° C. in a 5% CO2 humidified incubator, media is aspirated from wells and 100 μl fresh assay medium is added to each microculture. Serial dilutions of compounds are prepared and added to the cells as described above. After an additional 72 hour incubation at 37° C. in a 5% CO2 humidified incubator, the assay is quenched by removing media and rinsing plates twice in Dulbecco's Phosphate Buffered Saline (1×) (D-PBS) (Gibco BRL). The plates are dried for 5 min and frozen at −70° C. for at least 1 hour. The plates are then removed from the freezer and allowed to thaw at room temperature. To each well, 100 μl of 1-Step™ PNPP (Pierce Chemical Company, Rockford, Ill.) is added. After a 20-minute incubation, plates are read on a spectophotometer at 405 nm. The data is fitted to a linear interpolation to derive EC50 (for agonist mode) or IC50 (for antagonist mode) values. For the agonist mode, a % efficacy for each compound is calculated versus the response to tamoxifen. For the antagonist mode, a % efficacy for each compound is calculated versus E2 (1 nM) alone.

[5] = test system: Ishikawa human endometrial tumor cells; assay: Ishikawa alkaline phosphatase (PNPP) assay, antagonist mode; type: cell-based; details: with E2 (1 nM)
Text: as §2

[6] = Homo sapiens, MCF7, antagonist mode
[7] = antagonist mode, hydrochloride salt

Compound | Ki [1] [nM] | Ki [2] [nM] | IC50 [3, 6] [nM] | Ishikawa Agonist % Eff [4] [%] | EC50 [4] [nM] | IC50 ([5]; Homo sapiens, Ishikawa) [nM] | IC50 ([3]; antagonist mode) [nM] | IC50 [5] [nM] | IC50 [3, 7] [nM] | Ishikawa Agonist % Eff ([4]; hydrochloride salt) [%] | IC50 ([5]; hydrochloride salt) [nM]
Oc1ccc2c3c(sc2c1)-c1ccccc1COC3c1ccc(OCCN2CCCCC2)cc1 (stereo not drawn) [Example 2, 7-[4-(2-Piperidin-1-yl-ethoxy)-phenyl]-5H,7H-6-oxa-12-thia-dibenzo[a,e]azulen-10-ol] | 2.9 | 19 | 36 | 41 | 2.8 | 270 |  |  |  |  | 
COc1ccc2c3c(ccc2c1)-c1ccccc1COC3c1ccc(OCCN2CCCCC2)cc1 (stereo not drawn) [Example 3, 1-{2-[4-(8-Methoxy-11,13-dihydro-12-oxa-benzo[3,4]cyclohepta[1,2-a]naphthalen-11-yl)-phenoxy]-ethyl}-piperidine] | 140 | 430 | 480 | 21 | 260 | 340 |  |  |  |  | 
Cl.Oc1ccc2c(c1)COC(c1ccc(OCCN3CCCCC3)cc1)c1c-2ccc2cc(O)ccc12 (single isomer, unassigned) [Example 7, 11-[4-(2-Piperidin-1-yl-ethoxy)-phenyl]-11,13-dihydro-12-oxa-benzo[3,4]cyclohepta[1,2-a]naphthalene-2,8-diolhydrochloride salt] | 0.7 | 1.7 |  | 2.6 |  |  | 0.4 | 2.2 |  |  | 
Cl.Oc1ccc2c(c1)COC(c1ccc(OCCN3CCCCC3)cc1)c1c-2ccc2cc(O)ccc12 (single isomer, unassigned) [Example 6, 11-[4-(2-Piperidin-1-yl-ethoxy)-phenyl]-11,13-dihydro-12-oxa-benzo[3,4]cyclohepta[1,2-a]naphthalene-2,8-diolhydrochloride salt] | 58 | 120 |  | 38 | 54 |  | 160 | 740 |  |  | 
Cl.Oc1ccc2c3c(ccc2c1)-c1ccc(F)cc1COC3c1ccc(OCCN2CCCCC2)cc1 (single isomer, unassigned) [Example 9, 2-Fluoro-11-[4-(2-piperidin-1-yl-ethoxy)-phenyl]-11,13-dihydro-12-oxa-benzo[3,4]cyclohepta[1,2-a]naphthalen-8-ol hydrochloride salt] | 62 | 89 |  |  |  |  |  |  | 68 | 11 | 350
Cl.Oc1ccc2c3c(ccc2c1)-c1ccc(F)cc1COC3c1ccc(OCCN2CCCCC2)cc1 (single isomer, unassigned) [Example 8, 2-Fluoro-11-[4-(2-piperidin-1-yl-ethoxy)-phenyl]-11,13-dihydro-12-oxa-benzo[3,4]cyclohepta[1,2-a]naphthalen-8-ol hydrochloride salt] | 0.7 | 1.4 |  |  |  |  |  |  | 0.4 | 8.8 | 4.3
COc1ccc2c3c(sc2c1)-c1ccccc1COC3c1ccc(OCCN2CCCCC2)cc1 (stereo not drawn) [Example 1, 1-{2-[4-(10-Methoxy-5H,7H-6-oxa-12-thia-dibenzo[a,e]azulen-7-yl)-phenoxy]-ethyl}-piperidine] | 240 |  |  | 31 | 300 |  |  |  |  |  | 
Oc1ccc2c3c(ccc2c1)-c1ccccc1COC3c1ccc(OCCN2CCCCC2)cc1 (stereo not drawn) [Example 4, 11-[4-(2-Piperidin-1-yl-ethoxy)-phenyl]-11,13-dihydro-12-oxa-benzo[3,4]cyclohepta[1,2-a]naphthalen-8-ol trifluoroacetate] | 2.6 | 4 | 2.4 | 17 | 1.4 | 36 |  |  |  |  | 
